Results taken from US10946019B2, “Nurr1:RXR activating compounds for simultaneous treatment of symptoms and pathology of Parkinson's disease” (priority 2015, dated 2021).

Legend:
Nurr1:RXRα heterodimer = Nurr1:RXRα heterodimer (Homo sapiens (Human), UniProt P19793); assay: Nurr1:RXRα-dependent luciferase reporter (DR5-TK-Luc) transactivation assay; format: cell-based; conditions: SHSY-5Y, luciferase
Description: The in vitro transactivation assay determined the capacity of the compounds of the invention to activate the Nurr1:RXR heterodimers. Naive SHSY-5Y cells were transiently co-transfected, using Lipofectamine 2000 (Invitrogen), with a plasmid expressing the human receptor Nurr1, a plasmid expressing the RXR human receptor (RXRα or RXRγ receptor) and a reporter plasmid DR5-TK-Luc. […] After incubation overnight, the expression of luciferase was measured (FIG. 1A).

[1] = system: SHSY-5Y dopaminergic cells; assay: MPP+ induced cell death, MTT assay; format: cell-based, human
Description: MPP+, eradicates approximately 75% of the cells in 24 hours. […] Naive Neuro2A cells (FIG. 2A) or SH-SY5Y neuroblastoma cells FIG. 2B,C) were cultured in RPMI 1640, 10% fetal bovine serum at 37° C. Cells were pretreated with compound 3 for 12-24 h. Subsequent change of culture medium with addition of 0, 1, 2 and 4 mM MPP+ induced cell death. MTT assays determined the relative number of surviving cells FIG. 2D).
Such assays were performed, for instance, by adding compound 46 (12.5 μM) to human origin SHSY-5Y dopaminergic cells in which death was induced by the mitochondria complex I inhibitor MPP+ (1-methyl-4-phenylpyridinium), the active metabolite of MPTP (1-methyl-4-phenyl-1,2,3,6-tetrahydropyridine). […] Most of the MPP+-treated cells receiving vehicle died, while the few surviving cells remained attached to the plate but were rounded and had lost all projections. These morphological changes indicated impaired neuronal function. On the contrary, cells treated with compound 46 appeared healthy, flattened, well-attached, and their projections remained intact.
(§1) We examined the neuroprotective capability of Nurr1:RXRα heterodimer activation in SHSY-5Y cells where death was induced by either the oxidative stress related H2O2 or the mitochondria complex I inhibitor MPP+ (1-methyl-4-phenylpyridinium) (FIG. 72B). […] The protection conferred by compound 3 was Nurr1-dependent, since it was abrogated by knocking-down endogenous Nurr1 mRNA (FIGS. 1E and 72D). The neuroprotective effects of compound 3 extend to damage induced by the PD-associated mutation G2019S in the Leucine-Rich Repeat Kinase 2 (LRRK2) gene, the most common genetic defect associated with clinical PD (Tofaris et al. J. Neurosci. 26:3942-3950, 2006). Rat cortical neurons, co-transfected with CMV-GFP for identification, and CMVLRRK2-G2019S cDNAs show increased apoptosis as assessed by DAPI staining, compared to control neurons co-transfected with a LRRK2 wt cDNA.

SHSY-5Y cells = assay: H2O2 induced cell death, MTT assay; format: cell-based, human; conditions: 12.5 μM, varying concentrations of H2O2
Source text: FIGS. 72A-72R show the ability of compound 3 to induce the expression of genes involved in dopamine biosynthesis as well as the neuroprotective effects of compound 3 in cell lines and patient iPCs-derived dopaminergic neurons. […] FIGS. 72F, 72G, 72H, and 72I show representative confocal microscopy images of the compound 3-treated primary rat cortical neurons. […] FIG. 72M-72R show the effects of compound 3 on PD patient iPS cell-derived dopaminergic neurons with the LRRK2-G2019S mutation or corrected mutation (GC). Compound 3 treatment rescues neurite length (M, expressed in […]), number (N) and branching (O) phenotypes. Representative images show staining with TuJ, TH and DAPI (FIGS. 72P, 72Q, and 72R).
as §1, with “The neuroprotective effects of compound 3 extend to damage induced by the PD-associated mutation G2019S in the Leucine-Rich Repeat Kinase 2 (LRRK2) gene, the most common genetic defect associated with clinical PD (Tofaris et al. J. Neurosci. 26:3942-3950, 2006).” left out

noradrenaline levels = assay: Striatal noradrenaline levels by HPLC-ECD; format: in vivo, mouse; conditions: 4 hours
Description: 4 hours after dosing animals were killed by cervical dislocation, brains were removed, and the striata were dissected on ice. The samples were immediately frozen and stored at −80° C. until use. The tissues were processed for the analysis by high performance liquid chromatography (HPLC) with an electrochemical detector (ECD) (Emmanouil et al., 2006). The dissected tissues were weighed, homogenized, and deproteinized in 0.2 N perchloric acid solution containing 7.9 mM Na2S2O5 and 1.3 mM Na2EDTA. The homogenate was centrifuged at 37,000×g for 30 minutes, and the supernatant was stored at −80° C. until assayed. A reverse-phase ion-pair chromatography was used in all analyses, and the mobile phase consisted of an acetonitrile-50 mM phosphate buffer at pH 3.0, containing 5-octylsulfate sodium salt (300 mg/L) as the ion-pair reagent and (20 mg/L) Na2EDTA. Reference standards were prepared in 0.2 N perchloric acid solution containing 7.9 mM Na2S2O5 and 1.3 mM Na2EDTA. Samples were quantified by comparison of the areas under the peaks with those of reference standards using HPLC software (Chromatography Station for Windows™, Watrex International Inc., San Francisco, Calif.) (FIG. 3D).

C57/BL6 mice = assay: Porsolt forced swim test after chronic mild stress; format: in vivo, mouse; conditions: CMS mice, 2×10 mg/kg IP spaced 2 hours apart, 4 hours after last injection
Description: The chronic mild stress (CMS) procedure was applied semi randomly to each mouse and consisted of a variety of unpredictable mild environmental, social and physical stressors, including confinement in a small tube (1 hours), an empty cage without sawdust (15 hours), water and food deprivation (15 hours), food restriction (approximately 50 mg of food pellets, 3 hours), cage tilted at 45° (1-3 hours), damp sawdust (approximately 200 ml of water per 100 g of sawdust, 3 hours), paired housing in damp sawdust (18 hours), reversal of the light/dark cycle, 2-hour light/dark succession every 30 minutes, as well as light (15-17 hours) and dark (4-6 hours). Compound 3 (2×10 mg/kg spaced 2 hours apart) or vehicle control (Ethanol:PG:Saline, 10:30:60), was administered IP to mice. 4 hours after the last injection, mice were evaluated in the Porsolt forced swim test. […] Recorded behaviors for “floating” (the mouse is completely still in the water, except for isolated movements to right itself) and “swimming” (movement of all four legs with body aligned horizontally in the water) were measured (in seconds) for each mouse.

Rat cortical neurons = assay: Apoptosis of cortical neurons transfected with LRRK2-G2019S, DAPI staining; format: cell-based; conditions: rat cortical neurons co-transfected with CMV-GFP and LRRK2-G2019S
Source text: as §1

Nurr1:RXRα heterodimer, sequence (P19793 whole entry): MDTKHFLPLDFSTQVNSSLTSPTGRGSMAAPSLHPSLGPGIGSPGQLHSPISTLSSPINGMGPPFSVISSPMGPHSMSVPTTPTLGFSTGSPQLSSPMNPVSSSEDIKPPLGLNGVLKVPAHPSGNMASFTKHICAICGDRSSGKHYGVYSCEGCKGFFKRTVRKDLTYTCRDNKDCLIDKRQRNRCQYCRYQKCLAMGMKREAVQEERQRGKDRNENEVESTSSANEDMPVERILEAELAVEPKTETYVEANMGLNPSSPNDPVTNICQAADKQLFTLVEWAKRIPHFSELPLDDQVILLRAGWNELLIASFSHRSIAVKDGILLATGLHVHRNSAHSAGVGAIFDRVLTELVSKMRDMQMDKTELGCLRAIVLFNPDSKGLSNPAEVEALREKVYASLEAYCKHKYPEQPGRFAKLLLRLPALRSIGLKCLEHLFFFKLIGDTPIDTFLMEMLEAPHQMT
Nurr1:RXRα heterodimer, sequence (P43354 whole entry partner): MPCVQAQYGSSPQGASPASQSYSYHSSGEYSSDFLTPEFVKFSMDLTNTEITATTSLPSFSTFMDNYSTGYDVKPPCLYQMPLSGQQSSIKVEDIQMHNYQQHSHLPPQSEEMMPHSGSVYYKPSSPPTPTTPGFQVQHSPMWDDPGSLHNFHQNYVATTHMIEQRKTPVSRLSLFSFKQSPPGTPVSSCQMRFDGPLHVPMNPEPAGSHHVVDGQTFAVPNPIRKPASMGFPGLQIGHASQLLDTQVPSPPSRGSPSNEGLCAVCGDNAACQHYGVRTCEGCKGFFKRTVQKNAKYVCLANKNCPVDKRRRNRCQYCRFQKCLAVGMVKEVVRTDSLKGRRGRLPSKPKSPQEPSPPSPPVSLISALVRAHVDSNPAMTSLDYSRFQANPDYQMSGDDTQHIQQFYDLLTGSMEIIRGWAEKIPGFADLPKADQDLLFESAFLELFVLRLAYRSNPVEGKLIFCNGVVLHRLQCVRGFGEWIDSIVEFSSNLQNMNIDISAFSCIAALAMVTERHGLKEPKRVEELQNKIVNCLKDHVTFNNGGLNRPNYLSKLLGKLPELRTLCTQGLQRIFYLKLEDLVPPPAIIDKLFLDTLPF

C=CCc1c(N(C)c2ccc(C(=O)O)cc2)nc(-c2ccccc2)nc1C(F)(F)F [Example 3, 4-((5-allyl-2-phenyl-6-(trifluoromethyl)pyrimidin-4-yl)(methyl)amino)benzoic acid]
activation of Nurr1:RXRα heterodimers (Nurr1:RXRα heterodimer): activated
cell survival against MPP+ ([1]; 12.5 μM, varying concentrations of MPP+): significantly increased cell survival
number of surviving cells after MPP+ ([1]; pretreated 12-24 h, MPP+ 24 hours, MTT): approximately doubles
cell survival against H2O2 (SHSY-5Y cells): significantly increased cell survival
noradrenaline levels (noradrenaline levels; IP 10 mg/kg): remained unaffected
noradrenaline levels (noradrenaline levels; wild type C57/BL6 mice, single IP 20 mg/kg): did not increase
decrease of floating time (C57/BL6 mice): 61.48%
increase of swimming time (C57/BL6 mice): 31.7%
apoptosis induced by LRRK2-G2019S (Rat cortical neurons): reduced apoptosis to control levels
